From article PMC6151569 (Molecules : A Journal of Synthetic Chemistry and Natural …, 2017)
Where two headings read alike, the source gives them in different places.

What was measured:
[1] = system: LPS-stimulated TNF-α release from human whole blood; details: cited from earlier work
p38α MAP kinase [2] = target: T1, p38α MAP kinase (Homo sapiens, UniProt Q16539); details: read-out: FP Assay p38α Ki; cited from earlier work
[3] = HLM stability test with LC-MS metabolite screening; type: in vitro ADME, human; details: for Degradation: compound remaining, AVERAGE: HLM; for biotransformation / degradation: after 4 h of incubation with HLM; for compound present / remaining unmetabolized: after incubation time of 4 h with HLM
Description: Pooled human liver microsomes (adult male & female) were purchased from Merck (Schnelldorf, Germany). These microsomes were characterized in protein and CYP content. All incubations (final total volume 1050 µL) were made in the presence of an NADPH-regenerating system, consisting of 5 mM Glucose-6-phosphate, 5 U/mL Glucose-6-phosphate dehydrogenase and 1 mM NADP^+. The substrate (100 μM), the NADPH regenerating system and 4 mM MgCl2 × 6 H2O in 0.1 M Tris buffer (pH 7.4 at 37 °C) were preincubated for 5 min in an incubator at 37 °C and 750 rpm. The incubation mix was split into 50 μL aliquots and the reaction was started by addition of the HLM. Thereby the microsomal protein content was standardized to 1 mg/mL. To follow the course of metabolism, the reaction tubes were quenched at selected time points (0, 10, 20, 30, 60, 120, 180 and 240 min) by adding 100 μL internal standard at a concentration of 22.5 µM in MeCN. The samples were vortexed for 30 s and centrifuged (19,800 relative centrifugal force/4 °C/10 min). The supernatant was directly used for LC-MS analysis (for detailed LC-MS conditions, see supplementary materials). […] In all incubations, a limit of 1% organic solvent was not exceeded. […]
Screening of Metabolites by LC-MS Analysis
Metabolite formation was analyzed with an Alliance 2695 Separations Module (Waters GmbH, Eschborn). Sam ples maintained at 4°C, the column tem perature was set to 40°C and inj ection volume was 10 μL. The chromatographic separation for analytes 1 and ML3404 was performed on a Phenomenex Synergi Max-RP column (150 x 4.6 mm; 5 μm); LN950 and 2 on a Phenomenex Synergi Polar-RP column (150 x 4.6 mm; 5 μm) with a precolumn of the same material, respectively. An isocratic gradient of 8.5 min with 30% solvent A (90% H2O, 10% ACN, 0.1% formic acid) and 70% solvent B (ACN, 0.1% formic acid) at a flow rate of 400 μL/min was used for LN950. 1 and ML3404 were chromatographically separated by a binary gradient of 11.25 min with the equal solvents as mentioned before at a flow rate of 400 μL/min. The initial composition of 10% B was held for 20 sec, followed by a linear gradient up to 85% B in 5.8 min, holding for 30 sec, immediately changing to 10% B and reequilibrating at the end. The detection was performed on a Micromass Quattro micro triple quadrupole mass spectrometer (Waters GmbH, Eschborn) using the electrospray-ionization in the positive-mode. Correspondent to the analyte the spray voltage was set to 3.0-4.0 kV. The heated capillary o perated at 250°C and the desolvation gas flow worked at 500 L/h.

CYP2D6 = target: T2, CYP2D6 (Homo sapiens, UniProt P10635); assay: CYP inhibition (fluorimetric detection) assay; type: in vitro ADME; details: recombinant human CYP2D6, read-out: (%) inhibition of CYP 2D6
T2 construct: purchased Eurofins Panlabs Inc. (contract assay)
Description: (§1) CYP inhibition (fluorimetric detection) assay was performed by Eurofins Panlabs Inc. (St. Charles, MO, USA) with human recombinant CYP enzyme and the appropriate CYP substrate.

CYP2C19 = target: T3, CYP2C19 (Homo sapiens, UniProt P33261); assay: CYP inhibition (fluorimetric detection) assay; type: in vitro ADME; details: recombinant human CYP2C19, read-out: (%) inhibition of CYP 2C19
T3 construct: purchased Eurofins Panlabs Inc. (contract assay)
Description: as §1

CYP2C9 = target: T4, CYP2C9 (Homo sapiens, UniProt P11712); assay: CYP inhibition (fluorimetric detection) assay; type: in vitro ADME; details: recombinant human CYP2C9, read-out: (%) inhibition of CYP 2C9
T4 construct: purchased Eurofins Panlabs Inc. (contract assay)
Description: as §1

CYP1A2 = target: T5, CYP1A2 (Homo sapiens, UniProt P05177); assay: CYP inhibition (fluorimetric detection) assay; type: in vitro ADME; details: recombinant human CYP1A2, read-out: (%) inhibition of CYP 1A2
T5 construct: purchased Eurofins Panlabs Inc. (contract assay)
T5 sequence (P05177 1-516): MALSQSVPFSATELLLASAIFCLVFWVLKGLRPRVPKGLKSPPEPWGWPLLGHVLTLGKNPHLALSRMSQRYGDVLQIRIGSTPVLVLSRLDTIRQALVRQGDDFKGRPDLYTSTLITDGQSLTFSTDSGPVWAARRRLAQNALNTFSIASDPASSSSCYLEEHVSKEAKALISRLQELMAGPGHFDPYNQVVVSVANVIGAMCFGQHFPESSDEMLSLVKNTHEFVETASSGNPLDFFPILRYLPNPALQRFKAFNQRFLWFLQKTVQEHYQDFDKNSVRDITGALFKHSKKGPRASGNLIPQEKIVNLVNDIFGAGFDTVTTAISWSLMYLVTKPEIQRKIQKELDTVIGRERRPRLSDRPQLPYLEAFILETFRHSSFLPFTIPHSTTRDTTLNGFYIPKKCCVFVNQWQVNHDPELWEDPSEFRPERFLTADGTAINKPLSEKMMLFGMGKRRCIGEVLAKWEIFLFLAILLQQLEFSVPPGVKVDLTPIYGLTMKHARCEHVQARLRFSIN
Description: as §1

CYP3A4 = target: T6, CYP3A4 (Homo sapiens, UniProt P08684); assay: CYP inhibition (fluorimetric detection) assay; type: in vitro ADME; details: recombinant human CYP3A4, read-out: (%) inhibition of CYP 3A4
T6 construct: purchased Eurofins Panlabs Inc. (contract assay)
Description: as §1

[4] = rat liver microsomes; cited from earlier work
[5] = male and female human liver microsomes; cited from earlier work
[6] = system: LPS-stimulated TNF-α release from human whole blood; assay: HWB assay, inhibition of LPS-stimulated TNF-α release; type: cell-based; details: n = 2
Description: (§2) 2-Alkylsulfanyl imidazoles 1 and 2 were evaluated in an enzyme-linked immunosorbent assay (ELISA) as well as in a fluorescence polarization (FP)-based assay for their ability to inhibit and bind to the p38α MAP kinase. Moreover, the ability of the novel compounds to inhibit the LPS-stimulated TNF-α release in HWB was tested. In this ex vivo assay, the efficacy of the inhibitors is determined more specifically with regard to pharmacokinetic characteristics such as cellular permeability and plasma protein binding.

[7] = mouse liver microsomes; cited from earlier work
p38α MAP kinase [8] = target: T1, p38α MAP kinase; details: metabolite of ML3403; cited from earlier work
p38α MAP kinase [9] = target: T1, p38α MAP kinase; assay: ELISA assay, inhibition of p38α MAP kinase; type: biochemical; details: for IC50: n = 3
Description: as §2

p38α MAP kinase [10] = target: T1, p38α MAP kinase; assay: fluorescence polarization (FP)-based binding assay; details: for increase in binding affinity toward p38α MAP kinase relative to the 2-alkylsulfanylimidazole counterpart: 1 vs ML3403, 2 vs LN950; for Ki: n = 3
Description: as §2

[11] = system: CYP1A2, CYP2C9, CYP2C19, CYP2D6 and CYP3A4; assay: CYP inhibition screening, statements on the whole panel; type: in vitro ADME, human; details: human
Description: as §1

[12] = system: CYP isoforms 1A2, 2C9, 2C19, 2D6 and 3A4; assay: as above; type: in vitro ADME, human
Description: as §1

T4 sequence (P11712 whole entry): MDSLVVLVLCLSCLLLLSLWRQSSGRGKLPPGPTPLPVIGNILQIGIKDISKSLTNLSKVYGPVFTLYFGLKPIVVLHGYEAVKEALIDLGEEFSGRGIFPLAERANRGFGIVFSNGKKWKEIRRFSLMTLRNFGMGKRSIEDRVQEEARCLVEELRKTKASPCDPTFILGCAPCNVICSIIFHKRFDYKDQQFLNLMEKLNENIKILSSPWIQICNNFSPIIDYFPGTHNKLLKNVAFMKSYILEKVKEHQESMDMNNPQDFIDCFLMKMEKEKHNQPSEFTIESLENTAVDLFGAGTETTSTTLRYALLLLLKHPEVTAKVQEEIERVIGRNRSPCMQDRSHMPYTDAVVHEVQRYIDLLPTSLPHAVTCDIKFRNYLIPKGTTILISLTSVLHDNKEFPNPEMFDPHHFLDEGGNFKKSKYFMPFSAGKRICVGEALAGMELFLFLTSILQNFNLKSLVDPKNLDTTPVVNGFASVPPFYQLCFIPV
T1 sequence (Q16539 whole entry): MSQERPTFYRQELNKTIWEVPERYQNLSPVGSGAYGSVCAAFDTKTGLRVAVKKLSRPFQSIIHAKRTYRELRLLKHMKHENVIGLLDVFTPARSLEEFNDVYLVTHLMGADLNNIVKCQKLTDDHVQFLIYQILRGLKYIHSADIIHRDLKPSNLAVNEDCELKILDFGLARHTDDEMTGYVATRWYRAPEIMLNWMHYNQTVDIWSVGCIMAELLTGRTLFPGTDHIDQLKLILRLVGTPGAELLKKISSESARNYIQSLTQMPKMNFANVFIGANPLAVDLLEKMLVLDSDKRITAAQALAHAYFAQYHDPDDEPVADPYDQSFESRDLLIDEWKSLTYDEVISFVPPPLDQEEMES
T3 sequence (P33261 whole entry): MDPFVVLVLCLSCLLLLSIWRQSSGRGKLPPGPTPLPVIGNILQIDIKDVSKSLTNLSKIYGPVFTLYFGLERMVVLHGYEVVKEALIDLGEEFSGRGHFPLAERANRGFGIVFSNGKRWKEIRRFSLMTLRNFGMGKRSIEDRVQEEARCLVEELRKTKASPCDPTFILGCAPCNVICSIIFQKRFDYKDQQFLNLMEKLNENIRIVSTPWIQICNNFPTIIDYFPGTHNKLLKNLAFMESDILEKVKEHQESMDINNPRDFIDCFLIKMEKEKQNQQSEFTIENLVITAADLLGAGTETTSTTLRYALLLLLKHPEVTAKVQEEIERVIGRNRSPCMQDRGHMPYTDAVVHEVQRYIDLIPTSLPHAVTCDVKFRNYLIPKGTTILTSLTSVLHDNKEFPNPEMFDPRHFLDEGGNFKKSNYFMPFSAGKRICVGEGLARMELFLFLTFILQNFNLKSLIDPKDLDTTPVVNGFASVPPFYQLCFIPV
T6 sequence (P08684 whole entry): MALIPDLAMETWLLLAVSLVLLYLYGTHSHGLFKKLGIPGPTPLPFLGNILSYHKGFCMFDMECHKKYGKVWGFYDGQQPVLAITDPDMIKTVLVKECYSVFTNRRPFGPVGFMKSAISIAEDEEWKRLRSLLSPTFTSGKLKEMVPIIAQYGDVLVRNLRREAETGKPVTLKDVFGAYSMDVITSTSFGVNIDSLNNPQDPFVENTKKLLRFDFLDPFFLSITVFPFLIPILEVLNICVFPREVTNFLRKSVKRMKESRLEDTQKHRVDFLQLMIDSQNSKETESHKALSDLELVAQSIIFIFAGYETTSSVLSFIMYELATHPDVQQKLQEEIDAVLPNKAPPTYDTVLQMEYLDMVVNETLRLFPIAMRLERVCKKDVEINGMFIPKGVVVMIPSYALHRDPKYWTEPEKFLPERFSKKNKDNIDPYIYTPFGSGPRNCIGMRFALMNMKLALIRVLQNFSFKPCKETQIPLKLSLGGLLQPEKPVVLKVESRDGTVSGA
T2 sequence (P10635 whole entry): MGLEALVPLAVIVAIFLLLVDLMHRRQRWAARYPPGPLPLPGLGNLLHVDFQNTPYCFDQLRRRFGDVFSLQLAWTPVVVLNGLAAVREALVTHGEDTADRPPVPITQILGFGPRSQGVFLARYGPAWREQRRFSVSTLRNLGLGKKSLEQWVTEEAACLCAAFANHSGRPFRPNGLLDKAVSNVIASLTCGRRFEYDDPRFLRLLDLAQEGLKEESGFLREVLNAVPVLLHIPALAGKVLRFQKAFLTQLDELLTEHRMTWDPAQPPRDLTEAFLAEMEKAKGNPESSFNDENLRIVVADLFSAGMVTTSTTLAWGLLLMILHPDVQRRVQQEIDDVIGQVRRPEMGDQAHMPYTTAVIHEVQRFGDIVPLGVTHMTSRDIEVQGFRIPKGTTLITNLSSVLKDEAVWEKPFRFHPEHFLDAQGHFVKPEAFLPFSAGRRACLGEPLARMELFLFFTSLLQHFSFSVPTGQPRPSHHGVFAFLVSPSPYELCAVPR

Row | SMILES | Degradation: compound remaining, AVERAGE ([3]; 0 min) [%] | Degradation: compound remaining, AVERAGE ([3]; 10 min) [%] | Degradation: compound remaining, AVERAGE ([3]; 20 min) [%] | Degradation: compound remaining, AVERAGE ([3]; 30 min) [%] | Degradation: compound remaining, AVERAGE ([3]; 60 min) [%] | Degradation: compound remaining, AVERAGE ([3]; 120 min) [%] | Degradation: compound remaining, AVERAGE ([3]; 180 min) [%] | Degradation: compound remaining, AVERAGE ([3]; 240 min) [%] | biotransformation / degradation [3] [%] | inhibition at 10 µM (CYP2D6) [%] | inhibition at 10 µM (CYP2C19) [%] | inhibition at 10 µM (CYP2C9) [%] | inhibition at 10 µM (CYP1A2) [%] | inhibition at 10 µM (CYP3A4) [%] | IC50 [6] [nM] | compound present / remaining unmetabolized [3] | IC50 (p38α MAP kinase [9]) [nM] | increase in binding affinity toward p38α MAP kinase relative to the 2-alkylsulfanylimidazole counterpart (p38α MAP kinase [10]) [fold] | Ki (p38α MAP kinase [10]) [nM] | inhibition at 10 µM [11] [%] | also measured
1 | CC(C)C(C)Nc1cc(-c2nc(SCCO)[nH]c2-c2ccc(F)cc2)ccn1 (stereo not shown) [LN950, 2-((5-(4-fluorophenyl)-4-(2-((3-methylbutan-2-yl)amino)pyridin-4-yl)-1H-imidazol-2-yl)thio)ethan-1-ol, reference compound] | 100.00 | 86.86 | 77.42 | 61.96 | 51.99 | 37.23 | 32.10 | 28.49 | > 70 | 41.5 | 63 | 91.5 | 28 | 61 | – | – | – | – | – | – | IC50 ([1]; LPS-stimulated human whole blood, read-out: HWB Assay TNF-α IC50): 37 ± 4 nM; Ki (p38α MAP kinase [2]): 4 ± 1 nM
2 | CSc1nc(-c2ccnc(NC(C)c3ccccc3)c2)c(-c2ccc(F)cc2)[nH]1 (stereo not shown) [ML3403, 4-(5-(4-fluorophenyl)-2-(methylthio)-1H-imidazol-4-yl)-N-(1-phenylethyl)pyridin-2-amine, reference compound] | 100.00 | 80.59 | 68.97 | 57.93 | 42.80 | 31.72 | 24.06 | 16.25 | – | – | – | – | – | – | 2980 ± 874 | less than 20% | – | – | – | – | IC50 ([1]; printed in Figure 1, known inhibitors, read-out: IC50 (TNF-α)): 2700 nM; in vitro half-life [4]: 11.4 min; in vitro half-life [5]: 32.7 min; in vitro half-life [7]: 5.9 min; half-life at 100 µM ([3]; both sexes, human, pooled human liver microsomes, pH 7.4, pooled HLM, this study, read-out: in vitro half-life (converted)): 51.6 min
3 | CC(Nc1cc(-c2nc([S+](C)[O-])[nH]c2-c2ccc(F)cc2)ccn1)c1ccccc1 (stereo not shown) [ML3603] | – | – | – | – | – | – | – | – | – | – | – | – | – | – | – | – | – | – | – | – | activity on p38α MAP kinase (p38α MAP kinase [8]): active
4 | CCc1nc(-c2ccc(F)cc2)c(-c2ccnc(NC(C)c3ccccc3)c2)[nH]1 (stereo not shown) [compound 1, 4-(2-Ethyl-4-(4-fluorophenyl)-1H-imidazol-5-yl)-N-(1-phenylethyl)pyridin-2-amine] | 100.00 | 92.72 | 89.75 | 87.96 | 86.27 | 83.65 | 80.90 | 79.75 | 20 | 90.2 | 71 | 85.1 | 85.6 | 97.6 | 2539 ± 20 | up to 80% | 25 ± 2 | 4 | 11 ± 3 | > 70 | –
5 | CC(C)C(C)Nc1cc(-c2[nH]c(CCCO)nc2-c2ccc(F)cc2)ccn1 (stereo not shown) [compound 2, 3-(4-(4-Fluorophenyl)-5-(2-((3-methylbutan-2-yl)amino)pyridin-4-yl)-1H-imidazol-2-yl)propan-1-ol] | 100.00 | 97.15 | 93.57 | 91.84 | 91.99 | 91.57 | 90.42 | 89.73 | 10 | 78.8 | 83.6 | 61.9 | 69.4 | 92.1 | 32 ± 1 | – | 11 ± 5 | 4 | 1 ± 0.2 | > 60 | more active than reference compound ML3403 (p38α MAP kinase [9]; p38α MAP kinase): 3.6 fold; CYP test concentration of 10 µM relative to the IC50 value in the kinase activity assay [12]: ~1000 fold
